Reference: patent publication US20250213550A1, “COMPOUNDS AND METHODS FOR TREATING INFLAMMATORY BOWEL DISEASE” (Gilead Sciences, Inc., priority 2023, published 2025)
Like-named read-outs stand apart in the source and are kept apart here.

Assay: Phase 1 single- and multiple-ascending dose study: plasma PK of Compound A after oral Compound 1
Format: in vivo, human
Conditions: for Ctau / AUCtau/D / Cmax/D / AUC: Day 10, mean; for AUCtau/D / Cmax/D: dose-normalized; for half-life / AUC / Tmax: human, plasma
Protocol: A 2-part, single- and multiple-ascending dose sponsor-unblinded Phase 1 study was conducted for Cohorts 1-9 to evaluate the safety, tolerability, PK, and PD of Compound 1 in healthy participants. Up to 72 participants ages 18 to 55 years (inclusive) and having body mass index (BMI) of ≥19.0 and ≤30.0 kg/m^2 were enrolled. For Cohort 9, participants were homozygous for the UGT1A1*28 allele (UGT1A1 *28/*28: TA7/TA7).
Part A proceeded in 4 staggered, dose-escalation cohorts. Within each of Cohorts 1-4, 8 unique participants were randomized 3:1 to receive blinded Compound 1 (N=6) or placebo-to-match (PTM) (N=2). The dose of Compound 1 for all adaptive cohorts (Cohorts 2, 3, and 4) was determined based on cumulative safety and available PK data through a minimum of Day 3 from previous cohorts, not exceeding the specified upper dose limit (Table 2). Dosing in Part A was completed prior to proceeding with Part B.
Part B proceeded in up to 5 staggered, dose-escalation cohorts. Within each of Cohorts 5-9, 8 unique participants were randomized 3:1 to receive blinded Compound 1 (N=6) or PTM (N=2). Start of multiple dosing within Adaptive Cohort 5 was determined by review of the cumulative safety and PK data through at least Day 3 of the final cohort in Part A. Initiation of subsequent multiple-dose cohorts at a higher dose (Cohorts 6, 7, 8, and 9) was determined based on cumulative safety through at least Day 10 from all participants enrolled in the previous multiple-dose cohort (Table 3).
For Cohorts 1-4, plasma PK sampling occurred relative to the dose of Compound 1 at the following time points: • Day 1: 0 (pre-dose, ≤5 min prior to dosing), 0.25, 0.5, 1, 1.5, 2, 3, 4, 6, 8, 12, 18, 24, 36, 48, 72, 96, and 120 hours post-dose A single plasma PK sample was collected at early termination (ET), if applicable.
For Cohorts 5-9, plasma PK sampling occurred relative to the dose of Compound 1 at the following time points: • Day 1 (Cohorts 8 and 9): pre-dose (≤5 min before dose), 0.5, 1, 2, 3, 4, 6, 8, 12, 13, 14, 15, 16, 18, and 20 hours post-dose (relative to AM dose) • Day 10 (Cohorts 5-9): pre-dose (≤5 min before dose), 0.25, 0.5, 1, 1.5, 2, 3, 4, 6, 8, 12, 18, 24, 36, 48, 72, 96, and 120 hours post-dose • A pre-dose sample was collected on Days 2, 4, 7, and 8. A single plasma PK sample was collected at early termination (ET), if applicable.
Concentrations of Compound 1, and its respective metabolites Compound A and Compound B in plasma PK samples were determined by validated high-performance liquid chromatography-tandem mass spectrometry (LC-MS/MS) bioanalytical methods.
Pharmacokinetic parameters for Compound 1 and its metabolites were determined from the plasma concentration-time profiles for all evaluable participants.
Compound 1 was administered under fasting conditions following an overnight fast (no food or drinks except water) for at least 10 hours; food could be consumed 4 hours after administration of Compound 1.

[1] = Cohort 5, 75 mg Cpd 1 QD fasted
[2] = Cohort 6, 300 mg Cpd 1 QD fasted
[3] = Cohort 7, 900 mg Cpd 1 QD fasted

Ctau [1]: 0.273 µg/mL
Ctau [2]: 1.07 µg/mL
Ctau [3]: 2.33 µg/mL
time to steady-state exposures (Compound 1 once-daily dosing): ≤ 7 days
AUCtau/D [1]: 0.141 µg·h/mL
Cmax/D [1]: 0.0131 µg/mL
AUCtau/D [2]: 0.125 µg·h/mL
Cmax/D [2]: 0.0106 µg/mL
AUCtau/D [3]: 0.0691 µg·h/mL
Cmax/D [3]: 0.0055 µg/mL
half-life (oral, 75 mg, Cohort 5, 75 mg Cpd 1 QD fasted, Day 10, median, read-out: t1/2 (converted)): 1310 min
half-life (oral, 300 mg, Cohort 6, 300 mg Cpd 1 QD fasted, Day 10, median, read-out: t1/2 (converted)): 1140 min
half-life (oral, 900 mg, Cohort 7, 900 mg Cpd 1 QD fasted, Day 10, median, read-out: t1/2 (converted)): 1710 min
half-life (oral, across Compound 1 dose levels, single or multiple doses, read-out: median t1/2): 1200 to 1800 min
AUC (oral, Cohort 5, 75 mg Cpd 1 QD fasted): 10500 ng·h/mL
Tmax (oral, Cohort 5, 75 mg Cpd 1 QD fasted, Day 10, median, read-out: Tmax): 3 h
AUC (oral, Cohort 6, 300 mg Cpd 1 QD fasted): 37400 ng·h/mL
Tmax (oral, Cohort 6, 300 mg Cpd 1 QD fasted, Day 10, median, read-out: Tmax): 4 h
AUC (oral, Cohort 7, 900 mg Cpd 1 QD fasted): 62200 ng·h/mL
Tmax (oral, Cohort 7, 900 mg Cpd 1 QD fasted, Day 10, median, read-out: Tmax): 3.01 h
Tmax (oral, multiple doses of Compound 1 (75 to 900 mg QD, 600 mg BID), fasted, range across cohorts, read-out: median Tmax): 2 to 4 h
half-life (oral, multiple doses of Compound 1 (75 to 900 mg QD, 600 mg BID), fasted, range across cohorts, read-out: median t1/2): 1140 to 1680 min
half-life (po, single oral doses of Compound 1 (300 to 1500 mg), fasted, range across doses, read-out: median terminal elimination t1/2): 1320 to 1740 min
Tmax (single oral doses of Compound 1 (300 to 1500 mg), fasted, range across doses, read-out: median Tmax): 3 to 4 h
exposure (AUC) accumulation (multiple dosing of 600 mg Compound 1 once daily): approximately 2 fold
steady-state plasma exposure (Cmax and AUC) (multiple once-daily doses of Compound 1, 75 to 900 mg, fasted): increased in a dose-dependent manner
plasma exposure (Cmax, AUCinf, and AUClast) (single oral doses of Compound 1, 300 to 900 mg dose range, fasted): increased in a dose-dependent manner
Structure (SMILES): Cn1ccc2c([C@H](Nc3cc(Cl)c4ncc(C#N)c(NCC(C)(C)C)c4c3)c3cn(C45CC(C4)C5)nn3)cccc2c1=O [Compound A]
